In patent US11136297B2, “Compositions and methods for treating cancer” (THE REGENTS OF THE UNIVERSITY OF CALIFORNIA, priority 2016, dated 2021):

What was measured:
[1] = target: T1, 1-181 H-Ras(G12V/M72C/C118S) (Homo sapiens, UniProt P01112, C118S/G12V/M72C); assay: Coupling of Compound 3 to H-Ras M72C construct for lipid kinase assays; format: binding; settings: M72C construct with 200-250 Compound 3, 72 hours, 4° C.
T1 construct: Plasmids expressing 1-181 H-Ras(G12V/C118S) and H-Ras(G12V/M72C/C118S); His tag (purified on HisTrap, TEV-cleavable) (cleaved yes); made in house; host or cells: Escherichia coli BL21 DE3
Procedure: Coupling to inhibitor was done in a reaction containing […], 100 mM TCEP, 1 mM MgCl2 and […] Compound 3. DMSO was adjusted to a final concentration of 5%. After 24 hours, more inhibitor was added to a total final concentration of […]. The coupling was allowed to proceed for −72 hours at 4° C. Coupling efficiency was −70%. The coupled protein was exchanged with gel filtration buffer and loaded with GTPgS in the same manner as the H-Ras(G12V) construct. The protein was then run on a Superdex™ 75 10/300 GL size-exclusion column (GE Healthcare) equilibrated in Ras gel filtration buffer to remove excess nucleotide.

[2] = target: T2, p110d/p85a (PI3K-d) activation by H-Ras-GTP (Homo sapiens, UniProt P01112, C118S/G12V/M72C); assay: PI3K lipid kinase assay with membrane-coupled H-Ras (Transcreener ADP2 FI); format: biochemical; settings: with pY phosphopeptide; H-Ras(G12V) alone gave 20-fold
T2 construct: Plasmids expressing 1-181 H-Ras(G12V/C118S) and H-Ras(G12V/M72C/C118S); His tag (purified on HisTrap, TEV-cleavable) (cleaved yes); made in house; host or cells: Escherichia coli BL21 DE3 (H-Ras)
Procedure: Purification and Modification of H-Ras Constructs for Lipid Kinase Assays. Plasmids expressing 1-181 H-Ras(G12V/C118S) and H-Ras(G12V/M72C/C118S) were transformed into BL21 DE3 and the culture was induced at OD 0.6-0.9 with […] IPTG. The cultures were then allowed to grow for 4 h at 37° C. after which the cells were pelleted and stored at −80° C. Frozen pellets were re-suspended in lysis buffer and lysed by sonication (10s ON; 10s OFF; Power-6.0). Triton-X was added to a final concentration of 0.1% and lysate was centrifuged at 20,000 g for 45 minutes (Beckman Coulter Avanti J-251, JA 25.50 rotor). The supernatant was loaded on a 5 mL HisTrapTm FF column (GE Healthcare) equilibrated with buffer containing 10 mM imidazole pH 8.0 (NiNTA A). Following washes with 20 mL NiNTA A and 20 mL of 6% buffer containing 200 mM imidazole pH 8.0 (NiNTA B), the protein was eluted in 100% NiNTA B. The elution was buffer exchanged with NiNTA A buffer in a 10,000 MWCO Amicon concentrator (Millipore). The sample was concentrated down to <2 mL and TEV protease was added to −0.3 mg/mL. The cleavage was allowed to proceed overnight at 4° C. To de-enrich the TEV protease, the protein solution was loaded onto a HisTrapTm FF column and eluted with 10 mL of NiNTA A buffer. The elution was concentrated to −2 mL. […]

[3] = target: T3, H-Ras(M72C) bound to either GDP or GppNHp (Homo sapiens, UniProt P01112, M72C); assay: Electrophile labeling experiments (percent modification by whole protein LC/MS); format: binding
T3 construct: Labeling studies were conducted using the 1-166 H-Ras(M72C) construct containing all endogenous cysteines; His6; made in house; host or cells: Escherichia coli BL21(DE3)
Procedure: Electrophile Labeling Experiments.
Each reaction was analyzed in a 96 well plate format for analysis by LC/MS. Total reaction volumes were 25 μL for single time point labeling experiments and 200 uL for full 24-hour time courses. 25 μL reactions were made in the wells of a V-bottom 96 well plate and 200 uL reactions were made in 1.25 mL eppendorf tubes. All labeling reactions were conducted in Gel Filtration Buffer (20 mM HEPES (pH 7.5), 150 mM NaCl) with no added reductant at room temperature. […] Electrophile stocks were made in DMSO at 10 mM, aliquoted, and frozen. Labeling reactions were started by the addition of the desired volume of 10 mM electrophile stock and mixed thoroughly by pipette. General screening of new electrophiles was done at 100 μM electrophile in triplicate and sampled as a single time point after 24 hours of incubation. For Compound 3, labeling time courses were conducted at 20 μM compound with sampling done every 2 hours for the first 10 hours of incubation and continued after overnight incubation until the protein was fully modified. Reactions were allowed to sit at room temperature in the dark (either covered in aluminum foil or in a bench drawer) until the desired time point was reached. For 24-hour single point labeling experiments, the reaction was directly sampled from the 96 well plate and analyzed by LC/MS. For experiments with multiple time points, 22.5 μL aliquots of the 200 μL master reaction were sampled and quenched by the addition of 2.5 μL of 2% formic acid (also made in Gel Filtration Buffer). This 25 μL quenched sample was then analyzed by LC/MS and the remaining master reaction was allowed to continue reacting after gentle mixing by pipette. The percent modification was analyzed by electrospray mass spectrometry using a Waters Acquity UPLC/ESI-TQD with a 2.1×50 mm Acquity UPLC BEH300 C4 column.

Coupling efficiency [1]: 70% | activation of PI3K-d activity by H-Ras(G12V/M72C) bound to compound [2]: ~3 fold | Percent modification (labeling of Cys 72) ([3]; 4 μM H-Ras(M72C) GDP or GppNHp, 100 μM electrophile, 24 hours): improved covalent binding | labeling of the GDP state ([3]; H-Ras(M72C) GDP, 20 μM electrophile (1:5 Ras to Compound 3), time course): rapidly and fully labels the GDP state | modification of the GppNHp state ([3]; H-Ras(M72C) GppNHp, 20 μM electrophile (1:5 Ras to Compound 3)): 88.7%
SMILES: C=CC(=O)Nc1cc(Cl)cc(NC(=O)c2cnn(-c3ccc(OC)cc3)c2C(F)(F)F)c1 [Compound 3, N-(3-acrylamido-5-chlorophenyl)-1-(4-methoxyphenyl)-5-(trifluoromethyl)-1H-pyrazole-4-carboxamide]
